# Measurements taken from paper PMC9984387, “The dynamic nature of netrin-1 and the structural basis for glycosaminoglycan fragment-induced filament formation” (Nature Communications, 2023).
# Molecular target: NET1ΔC (Gallus gallus, UniProt Q90922)
# Experiment: X-ray crystal structure (native crystals soaked in SOS)
# Type: binding
# Details: 10 mM SOS soak 5-7 days; crystals from PEG 8000, CHES pH 9.5; one SOS per monomer, two sites SOSab and SOScd in LE-2 subdomain
smiles,measurement,value
"O=S(=O)(O)OC[C@H]1O[C@@](COS(=O)(=O)O)(O[C@H]2O[C@H](COS(=O)(=O)O)[C@@H](OS(=O)(=O)O)[C@H](OS(=O)(=O)O)[C@H]2OS(=O)(=O)O)[C@@H](OS(=O)(=O)O)[C@@H]1OS(=O)(=O)O [SOS, sucrose-octasulfate]",X-ray crystal structure (native crystals soaked in SOS),in complex with one sucrose-octasulfate molecule bound per monomer
